{"source": "patent US20090041876A1", "about": "“OIL/FAT-CONTAINING COMPOSITION FOR SUPPRESSION OF CARCINOGENESIS” (KANEKA CORPORATION, priority 2005, published 2009)", "key": {"GST-P-positive cell foci": {"tested_on": "GST-P-positive cell foci", "assay": "liver medium-term bioassay (Ito test): quantitative analysis of GST-P-positive cell foci in rat liver", "type": "in vivo", "protocol": "In order to examine the effect of the MCT solution of Example 1 on carcinogenesis, a search using a liver medium-term bioassay (Ito test) was performed. This test method is one of the two-step carcinogenesis models using rodents and is employed for rat liver. This test method has been used to search for 313 or more chemical substances, and is considered to be a reliable and useful method of searching for carcinogens or carcinogenesis-suppressing substances. Therefore, this test is accepted as an alternative to a conventional long-term carcinogenicity test in the Japan/US/EU Trilateral International Conference on Harmonization of Technical Requirements for Registration of Pharmaceuticals for Human Use (ICH). […]\n(§1) After a lapse of the third week of the experiment (one week after the start of test substance administration), partial hepatectomy was performed for all the animals, and lesions in the livers were amplified. […] The areas of the liver sections and the numbers and areas of GST-P-positive cell foci with diameters of 0.2 mm or more were measured using a pathological specimen image analyzer IPAP-WIN (Sumika Technoservice Corporation), and then the areas and numbers per cm^2 of the liver sections were calculated to perform a quantitative analysis. […]"}, "[1]": {"assay": "liver medium-term bioassay (Ito test): liver weights, general status, light and electron microscopical examination of livers", "type": "in vivo, rat", "details": "F344 male rats, DEN +, 500 ppm with feed (positive control)", "protocol": "Diethylnitrosamine (DEN) was administered intraperitoneally to the rats once at a dose of 200 mg/kg for the purpose of an initiation treatment for liver carcinogenesis, and from two weeks after the administration, a test substance, i.e., the MCT solution was forcibly administered orally at doses of 0 (control group), 150, 300, and 600 mg/kg once a day seven times/week for six weeks (Groups 1 to 4). The doses of the MCT solution used in this test (150, 300, and 600 mg/kg) correspond to 45, 90, and 180 mg/kg body weight in terms of a licorice extract serving as an effective ingredient. In addition, phenobarbital sodium salt (S. PB) was administered with a feed to a positive control group at a concentration of 500 ppm (Group 5). […]\nas §1"}}, "note": "Counter-ions that a name gives are not always drawn. Marks after values point to notes of the source that are not given here.", "data": [{"smiles": "CCC1(c2ccccc2)C(=O)NC(=O)NC1=O", "note": "[Phenobarbital Sodium, phenobarbital sodium salt]", "values": [{"measurement": "number and area per unit area of GST-P-positive cell foci versus control", "setting": "GST-P-positive cell foci; Group 5, DEN +, 500 ppm with feed", "result": "evidently high levels"}, {"measurement": "GST-P-positive cell foci, Area", "setting": "GST-P-positive cell foci; rat liver, DEN +, 500 ppm with feed (positive control)", "result": "0.541 ± 0.160** mm^2/cm^2"}, {"measurement": "Liver weight, Absolute weight", "setting": "[1]", "result": "9.2781 ± 0.4913", "unit": "g"}, {"measurement": "Liver weight, Relative weight", "setting": "[1]", "result": "3.3527 ± 0.1032", "unit": "%"}]}]}
